Test results taken from patent publication US9497963B2, “Methods and compositions for control of gypsy moth, Lymantria dispar” (Simon Fraser University, priority 2008, dated 2016).

Experiments:
[1] = tested on: male gypsy moth antenna; experiment: Coupled gas chromatographic-electroantennographic detection (GC-EAD); set-up: species or system Lymantria dispar; settings: EAD peak size and shape (sharp/broad)
Text: In GC-EAD assays, the analyte is processed by gas chromatography (GC). The column effluent is split, such that molecules of each chromatographic peak arrive simultaneously at the flame ionization detector of the GC and at an anectomized but otherwise intact insect antenna as the biological detector. This procedure detects specific compounds in the analyte that elicit an electrical potential from the antenna.
For GC-EAD recordings, an antenna was carefully dislodged from a male moth's head, and the antennal base placed into the opening of a glass capillary electrode (0.58 mm ID×65 mm length) (A-M Systems, Inc., Carlsborg, Wash., USA) filled with saline solution. The tip of the antenna was removed by spring microscissors (Fine Science Tools Inc., North Vancouver, British Columbia, Canada) and then placed into the opening of the recording electrode mounted on a portable micromanipulator and positioned in front of a constant stream of warm air (Praxair Canada Inc., Mississauga, Ontario, Canada) which delivered the GC column eluent. […] Identical retention times of compounds detected by the flame ionization detector of the GC and by the insect antenna allowed assignment of antennal responses to specific compounds in the eluent.

[2] = tested on: male gypsy moth antenna response to pheromone (+)-1; experiment: EAG short-term (STI) and long-term (LTI) inhibition of pheromone signaling (Example 5); set-up: species or system Lymantria dispar; settings: for inhibition at 0.001 mg / inhibition at 0.01 mg / inhibition at 0.1 mg / inhibition at 100 µg, 0.1 mg: Lymantria dispar; for inhibition at 0.001 mg / inhibition at 0.01 mg / inhibition at 0.1 mg / Activity (%): short-term inhibition (STI): negative = enhancement; for inhibition at 0.001 mg / inhibition at 0.01 mg / inhibition at 0.1 mg: read-out: Activity (%): short-term inhibition (STI); for inhibition at 100 µg, 0.1 mg: read-out: Activity (%): long-term inhibition (LTI)
Method: The puffs are numbered i-vi and were: i=air, ii=pure pheromone (+)-disparlure, (+)-1, (100 ng), iii-v=disparlure mixed with the test compound, the latter at three different doses, vi=pure (+)-1. Depolarizations from the resting potential are labeled d; hyperpolarizations seen during the recovery phase after a puff are labeled r. Subscripts refer to the puff number. FIG. 5A. Typical trace for compound 3c{2,3}. FIG. 5B. Typical trace for compound 3a{4,4}.
For other compounds, EAG traces were recorded as follows: a fully dislodged antenna from a male gypsy moth was mounted on the end of a reference electrode (a glass capillary with a silver wire, filled with buffered saline: 5 mM NaH2PO4, 10 mM Na2SO4, 4.5 mM KHCO3, 18 mM MgCl2, 4 mM CaCl2, 6 mM KCl, the pH is adjusted to 6.8 using 5 mM Na2HPO4). The tip of the antenna was severed with microscissors and placed in the recording electrode, which was mounted on a micromanipulator. A constant stream of air, that had been purified (charcoal filter), was blown over the antenna at a rate of 300 mL/min. Test samples were delivered through a stimulus delivery tube with a side opening 2 cm from the distal opening. The proximal end of the delivery tube was connected to a controlled stimulus delivery apparatus (Stimulus controller CS-05 Syntech Research and Equipment, NL 1200BM, Hilversum, The Netherlands). The distal end of the delivery tube pointed at the antenna (1 cm from the antenna). The side opening was connected to a cartridge fashioned from a Pasteur pipette which contained a small filter paper (Whatman No. 1) with the stimulus. These pipette cartridges could be prepared a few days in advance and stored at −80° C. wrapped in Al foil and in sealable plastic bags. Sample cartridges were mounted once they had reached room temperature. The stimulus delivery apparatus delivered a second stream of air (a puff) through the Pasteur pipette at a velocity of 600 mL/min, at a specified point in time, for 0.3 s. Receptor potentials of the antennae in response to test stimuli were recorded with a Syntech IDAC probe, amplifier and interfaced board, and were analyzed with EAG Syntech Software Version 2.4 (1996). See FIG. 4 for a representative EAG trace. The EAG traces were evaluated as follows (see FIG. 5).
The net depolarizations, d(net) (in mV), of puffs ii-vi,d(sample), (corrected for the depolarization with clean air, d(air)) d(net)=d(sample)−d(air) (Eq. 1)
The percentage short-term inhibition for each compound (STI(compound)) of puffs iii-v, relative to the first pure pheromone puff (ii) STI(compound)=100×(d(net)(ii)−d(net)(compound))/d(net)(ii) (Eq. 2)
c) the percentage long-term inhibition for each compound (LTI(compound)) of the pure pheromone puff that followed the last mixed puff (vi) relative to the first pure pheromone puff (ii) LTI(compound)=100×(d(net)(ii)−d(net)(vi))/d(net)(ii) (Eq. 3)
The compounds we tested gave weak or no olfactory responses by themselves in electroantennogram (EAG) experiments. The EAG trace reflects the change in the potential across the antenna when an air puff with an odorant is passed over the antenna. To understand the agonistic or antagonistic effect of the compounds on pheromone responses by male moth antennae, four types of EAG experiment were conducted. First, the response of the antenna elicited by a stimulus of pure (+)-1 was compared to the responses elicited by blends of (+)-1 with the test compound (FIG. 5). […] This effect was termed short-term inhibition (STI). […] Second, the time decay and dose responses for LTI activities were studied. Third, the strongest inhibitors were tested for their ability to cause LTI by themselves.
This experiment explored the agonistic or antagonistic activity of the synthetic aromatic compounds (Scheme 1 and eugenol and alkyl eugenols) with the gypsy moth pheromone (+)-1. […]

[3] = mixed plume (+)-1 100 ng + compound 1 μg, mean ± S.E.
[4] = mixed plume (+)-1 100 ng + compound 10 μg, mean ± S.E.
[5] = mixed plume (+)-1 100 ng + compound 100 μg (puff v), mean ± S.E.
[6] = pure (+)-1 100 ng plume following mixed plume with 100 μg compound, mean ± S.E.

| SMILES | GC-EAD activity [1] | inhibition at 0.001 mg [2, 3] [%] | inhibition at 0.01 mg [2, 4] [%] | inhibition at 0.1 mg [2, 5] [%] | inhibition at 100 µg, 0.1 mg [2, 6] [%] | short-term effect on antennal pheromone response (in words) [2] | Activity (%): short-term inhibition (STI) [2, 3] | Activity (%): short-term inhibition (STI) [2, 4] | Activity (%): short-term inhibition (STI) [2, 5] | Activity (%): long-term inhibition (LTI) [2, 6] | long-term inhibition (LTI) activity (in words) [2] |
| --- | --- | --- | --- | --- | --- | --- | --- | --- | --- | --- | --- |
| CCOc1ccccc1O [2a{2}, 2-Ethoxy phenol] | None | 42 ± 12 | 26 ± 12 | 58 ± 11 | 6 ± 4 |  |  |  |  |  |  |
| CCCOc1ccccc1O [2a{3}, 2-Propoxy phenol] | None | -26 ± 14 | 32 ± 9 | 46 ± 13 | 18 ± 5 |  |  |  |  |  |  |
| CCCCOc1ccccc1O [2a{4}, 2-Butoxy phenol] | None | 26 ± 12 | 21 ± 11 | 50 | 5 ± 6 |  |  |  |  |  |  |
| CC(C)CCOc1ccccc1O [2a{5}, 2-(3-Methyl-butyloxy) phenol] | None | 22 ± 8 | -44 ± 26 | -37 ± 33 | 6 ± 6 | slightly agonistic |  |  |  |  |  |
| C=CCOc1ccccc1O [2a{6}, 2-Allyloxy phenol] | None | -63 ± 62 | -33 ± 40 | -31 ± 71 | 16 ± 8 |  |  |  |  |  |  |
| COc1cccc(O)c1 [2b{1}, 3-Methoxy phenol] | None | 6 ± 11 | 14 ± 22 | 49 ± 8 | 4 ± 7 |  |  |  |  |  |  |
| CCOc1cccc(O)c1 [2b{2}, 3-Ethoxy phenol] | None | 4 ± 20 | 0 | 44 ± 18 | -3 ± 5 |  |  |  |  |  |  |
| CCCOc1cccc(O)c1 [2b{3}, 3-Propoxy phenol] | None | -6 ± 14 | 36 ± 19 | 65 ± 14 | 8 ± 6 |  |  |  |  |  |  |
| CCCCOc1cccc(O)c1 [2b{4}, 3-butoxyphenol] | None | -6 ± 18 | -20 ± 31 | -74 ± 71 | -1 ± 15 | short-term enhancements |  |  |  |  |  |
| CC(C)CCOc1cccc(O)c1 [2b{5}, 3-(3-Methyl-butyloxy) phenol] | None | -87 ± 63 | -111 ± 78 | -9 ± 58 | 4 ± 7 |  |  |  |  |  |  |
| C=CCOc1cccc(O)c1 [2b{6}] | None |  |  |  |  |  | 24 ± 23 (7) % | 28 ± 20 (7) % | 5 ± 32 (7) % | 1 ± 7 (7) % |  |
| CCCCOc1ccc(O)cc1 [2c{4}, 4-Butoxy phenol] | None | 12 ± 37 | 38 ± 11 | -122 ± 84 | 26 ± 13 | short-term enhancements |  |  |  |  |  |
| C=CCOc1ccc(O)cc1 [2c{6}, 4-Allyloxy phenol] | None | 19 ± 10 | 42 ± 8 | 46 ± 10 | 24 ± 8 |  |  |  |  |  |  |
| CC(C)CCOc1ccccc1OCCC(C)C [3a{5,5}, 1,2-Di-(3-methyl-butyloxy) benzene] | None | -77 ± 58 | -55 ± 67 | -105 ± 81 | 0 |  |  |  |  |  |  |
| C=CCOc1ccccc1OCC=C [3a{6,6}, 1,2-Diallyloxy benzene] | None | 32 ± 16 | 16 ± 24 | -27 ± 48 | 17 ± 28 |  |  |  |  |  |  |
| COc1cccc(OC)c1 [3b{1,1}, 1,3-Dimethoxy benzene] | Trace | 25 ± 18 | 9 ± 40 | 44 ± 36 | 1 ± 8 |  |  |  |  |  |  |
| C=CCOc1cccc(OC)c1 [3b{1,6}, 1-allyloxy-3-methoxybenzene] | None | -67 ± 61 | -107 ± 88 | -95 ± 106 | 14 ± 13 |  |  |  |  |  |  |
| CCOc1cccc(OCC)c1 [3b{2,2}, 1,3-Diethoxy benzene] | Trace | -100 ± 51 | -12 ± 70 | 63 ± 65 | 39 ± 6 |  |  |  |  |  |  |
| CCCOc1cccc(OCCC)c1 [3b{3,3}, 1,3-Dipropoxy benzene] | None | 36 ± 11 | 1 ± 26 | -2 ± 34 | 45 ± 12 |  |  |  |  |  |  |
| C=CCOc1cccc(OCCC)c1 [3b{3,6}, 1-allyloxy-3-propoxybenzene] | None | -85 ± 30 | -85 ± 80 | -96 ± 98 | 48 ± 7 |  |  |  |  |  | most active long-term inhibitor |
| CCCCOc1cccc(OCCCC)c1 [3b{4,4}, 1,3-Dibutoxy benzene] | None | 4 ± 45 | -72 ± 91 | -42 ± 93 | 8 ± 9 |  |  |  |  |  |  |
| C=CCOc1cccc(OCCCC)c1 [3b{4,6}, 1-allyloxy-3-n-butoxybenzene] | None | -66 ± 43 | -101 ± 76 | 8 ± 46 | 27 ± 12 |  |  |  |  |  |  |
| CC(C)CCOc1cccc(OCCC(C)C)c1 [3b{5,5}, 1,3-Di-(3-methyl-butyloxy) benzene] | None | 41 ± 13 | -38 ± 41 | -51 ± 51 | 9 ± 9 |  |  |  |  |  |  |
| C=CCOc1cccc(OCCC(C)C)c1 [3b{5,6}, 1-allyloxy-3-isopentoxybenzene] | None | -69 ± 34 | -85 ± 65 | -99 ± 88 | 15 ± 8 |  |  |  |  |  |  |
| C=CCOc1cccc(OCC=C)c1 [3b{6,6}, 1,3-Diallyloxy benzene] | None | 11 ± 18 | 10 ± 22 | -34 ± 41 | 33 ± 12 |  |  |  |  |  |  |
